Assay results from ChEMBL document CHEMBL5390218, “Benzimidazole derivatives as tubulin polymerization inhibitors: Design, synthesis and in vitro cytotoxicity studies” (Bioorg Med Chem Lett, 2023).
Activity calls are given as the source filed them. No cut-off for these calls is given here.

What was measured:
SK-MEL-28 [1] = assay: Induction of apoptosis in human SK-MEL-28 cells assessed as necrotic cells at 1 uM incubated for 24 hrs by Annexin V-FITC/PI staining based flow cytometry analysis (reference value: 0.1%); assay type: functional
SK-MEL-28 [2] = assay: Induction of apoptosis in human SK-MEL-28 cells assessed as live cells at 5 uM incubated for 24 hrs by Annexin V-FITC/PI dual staining based flow cytometry analysis (reference value: 99.9%); assay type: functional
SK-MEL-28 [3] = assay: Induction of mitochondrial membrane potential changes in human SK-MEL-28 cells assessed as J-aggregate level by measuring red fluorescence intensity at 2.5 uM incubated for 48 hrs by JC-1 staining based analysis (reference value: 98.9%); assay type: functional
SK-MEL-28 [4] = assay: Induction of apoptosis in human SK-MEL-28 cells assessed as necrotic cells at 5 uM incubated for 24 hrs by Annexin V-FITC/PI staining based flow cytometry analysis (reference value: 0.1%); assay type: functional
HCT-116 = assay: Anticancer activity against human HCT-116 cells assessed as inhibition in cell growth measured after 72 hrs by MTT assay; assay type: functional, cell-based; settings: HCT-116, 72 h
SK-MEL-28 [5] = assay: Induction of apoptosis in human SK-MEL-28 cells assessed as live cells at 2.5 uM incubated for 24 hrs by Annexin V-FITC/PI dual staining based flow cytometry analysis (reference value: 99.9%); assay type: functional
[6] = Selectivity index, ratio of IC50 for NRK-52E cells to ratio of IC50 for human SK-MEL-28 cells
[7] = Selectivity index, ratio of IC50 for NRK-52E cells to ratio of IC50 for human HCT-116 cells; assay type: toxicity; settings: rat (NRK-52E), NRK-52E cells versus HCT-116 cells, read-out: Selectivity Index
SK-MEL-28 [8] = assay: Induction of morphological changes in human SK-MEL-28 cells assessed as appearance of nuclei at 1 to 5 uM measured after 48 hrs DAPI staining based analysis; assay type: functional, cell-based; settings: dose 1-5 µM
SK-MEL-28 [9] = assay: Induction of cell cycle arrest in human SK-MEL-28 cells assessed as accumulation of cells at S phase at 5 uM measured after 48 hrs by PI staining based flow cytometry (reference value: 16.5%); assay type: functional
SK-MEL-28 [10] = assay: Induction of apoptosis in human SK-MEL-28 cells assessed as late apoptotic cells at 1 uM incubated for 24 hrs by Annexin V-FITC/PI dual staining based flow cytometry analysis (reference value: 0.1%); assay type: functional
SK-MEL-28 [11] = assay: Induction of cell cycle arrest in human SK-MEL-28 cells assessed as accumulation of cells at G2 phase at 5 uM measured after 48 hrs by PI staining based flow cytometry (reference value: 9.17%); assay type: functional
Tubulin (Homo sapiens) [12] = molecular target: T1, Tubulin (Homo sapiens) (UniProt P68371+Q9H4B7+P0DPH7+P68366+Q13509+Q71U36+P04350+Q3ZCM7+P07437+P68363+Q9BQE3+Q6PEY2+Q13885+Q9BVA1+Q9BUF5); assay: Inhibition of tubulin polymerization (unknown origin) at 1.5 uM incubated for 1 hr relative to control; assay type: protein-complex assay
SK-MEL-28 [13] = assay: Induction of apoptosis in human SK-MEL-28 cells assessed as live cells at 1 uM incubated for 24 hrs by Annexin V-FITC/PI dual staining based flow cytometry analysis (reference value: 99.9%); assay type: functional
SK-MEL-28 [14] = assay: Induction of morphological changes in human SK-MEL-28 cells assessed as bright pyknotic nuclei at 1 to 5 uM measured after 48 hrs DAPI staining based analysis; assay type: functional, cell-based; settings: dose 1-5 µM
SK-MEL-28 [15] = assay: Induction of mitochondrial membrane potential depolarization in human SK-MEL-28 cells assessed as J-monomer level by measuring green fluorescence intensity at 5 uM incubated for 48 hrs by JC-1 staining based analysis (reference value: 0.8%); assay type: functional
SK-MEL-28 [16] = assay: Induction of cell cycle arrest in human SK-MEL-28 cells assessed as accumulation of cells at S phase at 2.5 uM measured after 48 hrs by PI staining based flow cytometry (reference value: 16.5%); assay type: functional
SK-MEL-28 [17] = assay: Induction of cell cycle arrest in human SK-MEL-28 cells assessed as accumulation of cells at G0-G1 phase at 1 uM measured after 48 hrs by PI staining based flow cytometry (reference value: 74.32%); assay type: functional
SK-MEL-28 [18] = assay: Inhibition of cell migration in human SK-MEL-28 cells at 1 to 5 uM incubated for 0 to 48 hrs by wound healing assay; assay type: functional, cell-based; settings: dose 1-5 µM, time 0-48 hrs
Tubulin (Homo sapiens) [19] = molecular target: T1, Tubulin (Homo sapiens); assay: Inhibition of tubulin polymerization (unknown origin) at 3 uM incubated for 1 hr relative to control; assay type: protein-complex assay
SK-MEL-28 [20] = assay: Induction of morphological changes in human SK-MEL-28 cells assessed as production of apoptotic bodies by ethidium bromide/acridine orange staining based analysis; assay type: functional, cell-based; settings: dose 1-5 µM
SK-MEL-28 [21] = assay: Induction of ROS generation in human SK-MEL-28 cells by DCFDA staining based analysis; assay type: functional, cell-based; settings: dose 1-5 µM
SK-MEL-28 [22] = assay: Induction of cell cycle arrest in human SK-MEL-28 cells assessed as accumulation of cells at G0-G1 phase at 5 uM measured after 48 hrs by PI staining based flow cytometry (reference value: 74.32%); assay type: functional
SK-MEL-28 [23] = assay: Induction of apoptosis in human SK-MEL-28 cells assessed as late apoptotic cells at 5 uM incubated for 24 hrs by Annexin V-FITC/PI dual staining based flow cytometry analysis (reference value: 0.1%); assay type: functional
SK-MEL-28 [24] = assay: Induction of cell cycle arrest in human SK-MEL-28 cells assessed as accumulation of cells at G2 phase at 1 uM measured after 48 hrs by PI staining based flow cytometry (reference value: 9.17%); assay type: functional
[25] = Selectivity index, ratio of IC50 for NRK-52E cells to ratio of IC50 for human A549 cells; assay type: toxicity; settings: rat (NRK-52E), NRK-52E cells versus A549 cells, read-out: Selectivity Index
Tubulin (Homo sapiens) [26] = molecular target: T1, Tubulin (Homo sapiens); assay: Inhibition of tubulin polymerization (unknown origin) at 0.75 uM incubated for 1 hr relative to control; assay type: protein-complex assay
Tubulin (Homo sapiens) [27] = molecular target: T1, Tubulin (Homo sapiens); assay: Inhibition of tubulin polymerization (unknown origin) at 6 uM incubated for 1 hr relative to control; assay type: protein-complex assay
SK-MEL-28 [28] = assay: Induction of apoptosis in human SK-MEL-28 cells assessed as necrotic cells at 2.5 uM incubated for 24 hrs by Annexin V-FITC/PI staining based flow cytometry analysis (reference value: 0.1%); assay type: functional
SK-MEL-28 [29] = assay: Induction of cell cycle arrest in human SK-MEL-28 cells assessed as accumulation of cells at G2 phase at 2.5 uM measured after 48 hrs by PI staining based flow cytometry (reference value: 9.17%); assay type: functional
SK-MEL-28 [30] = assay: Induction of morphological changes in human SK-MEL-28 cells assessed as chromatin condensation by ethidium bromide/acridine orange staining based analysis; assay type: functional, cell-based; settings: dose 1-5 µM
[31] = Selectivity index, ratio of IC50 for NRK-52E cells to ratio of IC50 for mouse B16-F10 cells; assay type: toxicity; settings: NRK-52E cells versus B16-F10 cells, read-out: Selectivity Index
SK-MEL-28 [32] = assay: Induction of cell cycle arrest in human SK-MEL-28 cells assessed as accumulation of cells at S phase at 1 uM measured after 48 hrs by PI staining based flow cytometry (reference value: 16.5%); assay type: functional
SK-MEL-28 [33] = assay: Induction of morphological changes in human SK-MEL-28 cells assessed as bright fragmented nuclei at 1 to 5 uM measured after 48 hrs DAPI staining based analysis; assay type: functional, cell-based; settings: dose 1-5 µM

COc1cc(-c2nc3cc(F)ccc3[nH]2)ccc1OCC(=O)N1CCc2ccccc21 showed an Activity (SK-MEL-28 [1]) of 0%, an Activity (SK-MEL-28 [2]) of 50.7% and an Activity (SK-MEL-28 [3]) of 96.7%. For the same molecule, the Activity (SK-MEL-28 [4]) was 13%, the IC50 (HCT-116) was 6.98 µM and the Activity (SK-MEL-28 [5]) was 52.5%. The “Selectivity Index” value [6] was 20, the selectivity ratio [7] was 7.7 and the Activity (SK-MEL-28 [8]) was “Active”. The Activity (SK-MEL-28 [9]) was 25.66%, the Activity (SK-MEL-28 [10]) was 10.7% and the Activity (SK-MEL-28 [11]) was 26.05%. For the same molecule, the inhibition (Tubulin (Homo sapiens) [12]) was 35.1%, the Activity (SK-MEL-28 [13]) was 28.5% and the Activity (SK-MEL-28 [14]) was “Active”. For the same molecule, the Activity (SK-MEL-28 [15]) was 14.9%, the Activity (SK-MEL-28 [16]) was 23.71% and the Activity (SK-MEL-28 [17]) was 61.71%. For the same molecule, the inhibition (SK-MEL-28 [18]) was “Active”, the inhibition (Tubulin (Homo sapiens) [19]) was 47.4% and the Activity (SK-MEL-28 [20]) was “Dose-Dependent Effect”. For the same molecule, the Activity (SK-MEL-28 [21]) was “Dose-Dependent Effect”, the Activity (SK-MEL-28 [22]) was 49.28% and the Activity (SK-MEL-28 [23]) was 35.1%. The Activity (SK-MEL-28 [24]) was 15.96%, the selectivity ratio [25] was 14 and the inhibition (Tubulin (Homo sapiens) [26]) was 20.4%. It also gave an inhibition (Tubulin (Homo sapiens) [27]) of 52.4%, an Activity (SK-MEL-28 [28]) of 1% and an Activity (SK-MEL-28 [29]) of 24.82%. For the same molecule, the Activity (SK-MEL-28 [30]) was “Dose-Dependent Effect”, the selectivity ratio [31] was 17.4 and the Activity (SK-MEL-28 [32]) was 22.3%. For the same molecule, the Activity (SK-MEL-28 [33]) was “Active”.
